ChEMBL document CHEMBL1201862, “PubChem BioAssay data set” (2004)
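Compound exposure: 48 hours, 5 concentrations, 96-well plates. GI50 marks 50% less growth.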 Calls of active or inactive are those of the source. Rule as the data show it: active = GI50 up to about 1.1 µM and inactive = higher.

Legend:
Assay in all cases: growth of human tumour cells (NCI), 48 h
KM12 = system: KM12
OVCAR-3 = system: OVCAR-3
BT-549 = system: BT-549
CAKI-1 = system: CAKI-1
K562 = system: K562
PC-3 = system: PC-3
UACC-257 = system: UACC-257
HT-29 = system: HT-29
SF-539 = system: SF-539
SN12C = system: SN12C
U-251 = system: U-251
M14 = system: M14
Hs-578T = system: Hs-578T
LOX IMVI = system: LOX IMVI
786-0 = system: 786-0
NCI-H23 = system: NCI-H23
RPMI-8226 = system: RPMI-8226
MDA-N = system: MDA-N
SR = system: SR
SK-MEL-2 = system: SK-MEL-2

Measured: GI50

CN(CCCn1ccnc1[N+](=O)[O-])CCCn1ccnc1[N+](=O)[O-]
inactive: KM12 > 100 µM | OVCAR-3 > 100 µM | BT-549 > 100 µM | CAKI-1 > 100 µM | K562 > 100 µM | PC-3 > 100 µM | UACC-257 > 100 µM | HT-29 > 100 µM | SF-539 > 100 µM | SN12C > 100 µM | U-251 > 100 µM | M14 > 100 µM | Hs-578T > 100 µM | LOX IMVI > 100 µM | 786-0 > 100 µM | NCI-H23 > 100 µM | RPMI-8226 > 100 µM | MDA-N > 100 µM | SR > 100 µM | SK-MEL-2 > 100 µM

CC(=O)Oc1ccc2c(c1)c1c(=O)oc(C)nc1n2Cc1ccccc1
inactive: KM12 23.6 µM | OVCAR-3 77.6 µM | BT-549 17.4 µM | CAKI-1 4.99 µM | K562 50.8 µM | PC-3 41.8 µM | UACC-257 > 100 µM | HT-29 > 89.3 µM | SF-539 27.5 µM | SN12C 66.8 µM | U-251 30.9 µM | M14 40.3 µM | Hs-578T > 73.6 µM | LOX IMVI 32 µM | 786-0 39.6 µM | NCI-H23 > 63.5 µM | RPMI-8226 56.4 µM | MDA-N 27.5 µM | SR > 52.4 µM | SK-MEL-2 19.2 µM

C=C1C(=O)O[C@H]2[C@@H]3O[C@@](C)(CC/C=C(\C)CCC[C@@H]2C)[C@H](O)C[C@@H]13
inactive: KM12 10.8 µM | OVCAR-3 2.59 µM | BT-549 2.79 µM | CAKI-1 1.42 µM | K562 1.25 µM | PC-3 8.49 µM | UACC-257 10 µM | HT-29 1.38 µM | SF-539 2.14 µM | SN12C 2.28 µM | U-251 13.5 µM | M14 1.95 µM | Hs-578T 3.29 µM | LOX IMVI 2.86 µM | 786-0 2.75 µM | NCI-H23 1.61 µM | RPMI-8226 2.25 µM | MDA-N 2.36 µM | SR 3.16 µM | SK-MEL-2 11.8 µM

Cc1ccccc1OC(C)C(=O)NN1C(=O)CC(=O)N(c2ccc(Cl)cc2)C1=S (stereo not given)
inactive: KM12 36.3 µM | OVCAR-3 37.1 µM | BT-549 37.2 µM | CAKI-1 37.8 µM | K562 38.6 µM | PC-3 31.9 µM | UACC-257 30 µM | HT-29 39.5 µM | SF-539 46.1 µM | SN12C 34.3 µM | U-251 34.1 µM | M14 44.8 µM | Hs-578T 63.2 µM | LOX IMVI 29 µM | 786-0 34 µM | NCI-H23 31 µM | RPMI-8226 34.4 µM | MDA-N 32.1 µM | SR 26 µM | SK-MEL-2 27.8 µM

O=C1OC(c2ccc([N+](=O)[O-])cc2)=N/C1=C\c1ccc(Cl)cc1
inactive: KM12 > 100 µM | OVCAR-3 > 100 µM | BT-549 > 100 µM | CAKI-1 > 100 µM | K562 > 100 µM | PC-3 > 100 µM | UACC-257 > 100 µM | HT-29 > 100 µM | SF-539 > 100 µM | SN12C > 100 µM | U-251 > 100 µM | M14 > 100 µM | Hs-578T > 100 µM | LOX IMVI > 100 µM | 786-0 > 100 µM | NCI-H23 > 100 µM | RPMI-8226 > 100 µM | MDA-N > 100 µM | SR > 100 µM | SK-MEL-2 > 100 µM

C[N+]1(CCN[N+]2(C)CCCCC2)CCc2ccccc2C1 (stereo not given)
inactive: KM12 > 100 µM | OVCAR-3 > 100 µM | BT-549 > 100 µM | CAKI-1 > 100 µM | K562 > 100 µM | PC-3 > 100 µM | UACC-257 > 100 µM | HT-29 > 100 µM | SF-539 58.3 µM | SN12C > 100 µM | U-251 > 100 µM | M14 > 100 µM | Hs-578T > 100 µM | LOX IMVI > 100 µM | 786-0 > 100 µM | NCI-H23 > 100 µM | RPMI-8226 > 100 µM | MDA-N > 100 µM | SR > 100 µM | SK-MEL-2 > 100 µM

C[n+]1ccccc1/C1=c2\cc/c([nH]2)=C(\c2cccc[n+]2C)C2=N/C(=C(/c3cccc[n+]3C)C3C=CC(N3)/C(c3cccc[n+]3C)=C3/C=CC1=N3)C=C2
inactive: KM12 62.4 µM | OVCAR-3 58.7 µM | BT-549 > 100 µM | CAKI-1 > 100 µM | K562 26.7 µM | PC-3 > 100 µM | UACC-257 > 100 µM | HT-29 39.3 µM | SF-539 > 100 µM | SN12C > 100 µM | U-251 > 100 µM | M14 > 100 µM | Hs-578T > 100 µM | LOX IMVI > 100 µM | 786-0 > 100 µM | NCI-H23 > 100 µM | RPMI-8226 56.1 µM | MDA-N > 100 µM | SR 15.6 µM | SK-MEL-2 > 100 µM
